From US20210115018A1, “PIPERIDINE COMPOUNDS AS COVALENT MENIN INHIBITORS” (THE REGENTS OF THE UNIVERSITY OF MICHIGAN, priority 2018, published 2021)
pIC50: −log10 of the molar value.

Tests used:
menin protein = biological target: T1, menin protein (Homo sapiens, UniProt O00255); experiment: Fluorescence polarization (FP) competitive binding assay, menin binding affinity; details: FP competition with FAM-MM2 probe 2 nM, menin 4 nM, 30 minutes room temperature
T1 sequence (O00255 1-610): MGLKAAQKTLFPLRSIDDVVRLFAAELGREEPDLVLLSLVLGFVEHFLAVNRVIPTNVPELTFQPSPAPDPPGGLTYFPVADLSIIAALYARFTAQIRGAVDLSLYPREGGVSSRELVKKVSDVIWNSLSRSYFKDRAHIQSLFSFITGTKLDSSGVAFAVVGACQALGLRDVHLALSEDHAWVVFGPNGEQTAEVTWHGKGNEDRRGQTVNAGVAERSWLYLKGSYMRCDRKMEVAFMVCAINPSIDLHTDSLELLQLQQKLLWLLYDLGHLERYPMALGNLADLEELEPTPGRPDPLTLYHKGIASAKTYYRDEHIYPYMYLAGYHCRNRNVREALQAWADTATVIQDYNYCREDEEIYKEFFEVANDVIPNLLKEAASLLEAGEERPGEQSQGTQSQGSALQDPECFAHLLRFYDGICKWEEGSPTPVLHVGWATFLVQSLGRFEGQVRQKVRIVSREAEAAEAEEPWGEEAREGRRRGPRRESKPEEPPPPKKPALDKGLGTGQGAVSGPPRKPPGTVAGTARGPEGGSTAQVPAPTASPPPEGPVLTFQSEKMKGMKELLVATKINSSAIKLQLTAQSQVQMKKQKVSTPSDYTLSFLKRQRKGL
Procedure, shortened: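 Competitive FP with FAM-labeled MLL1 peptide probe FAM-MM2 (2 nM) and menin (4 nM) in PBS, 0.02% bovine γ-globulin, 4% DMSO, 0.01% Triton X-100. After 30 min at room temperature, mP read at 485/530 nm; IC50 from nonlinear regression against probe-only and complex-only controls.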

MV4-11 = experiment: 7-day proliferation assay (WST-8), cell growth inhibition; format: cell-based; details: Homo sapiens, MV4-11, 168 h, MV4-11 cells, 7 days
Procedure, shortened: (§1)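 Cells seeded at 2,000-3,000/well were exposed to serially diluted compound for 7 days at 37° C., 5% CO2. Viability was read by WST-8 absorbance at 450 nm after 1-2 h color development; readings normalized to DMSO-treated cells, IC50 by four-parameter nonlinear regression.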

MOLM13 = experiment: as above; format: cell-based; details: Homo sapiens, MOLM-13, 168 h, MOLM13 cells, 7 days
Procedure, shortened: as §1

SMILES | pIC50 (menin protein) | IC50 (MV4-11) | IC50 (MOLM13)
C=CC(=O)N1CCC[C@@H](S(=O)(=O)c2ccc(N3CC(CN4CCC([C@@](CN5CCC5)(c5cccc(F)c5)[C@H]5CCC[C@@H]5NC(=O)OC)CC4)C3)c(F)c2)C1 [compound 219] | 8.70 | < 10 nM | < 10 nM
C=CC(=O)N1CCCC[C@@H](S(=O)(=O)c2ccc(N3CC(CN4CCC([C@@](CN5CCC5)(c5cccc(F)c5)[C@H]5CCC[C@@H]5NC(=O)OC)CC4)C3)cc2)C1 [compound 220] | 8.30 | < 10 nM | < 50 nM
C=CC(=O)N1CCCC[C@@H](S(=O)(=O)c2ccc(N3CC(F)(CN4CCC([C@@](CN5CCC5)(c5cccc(F)c5)[C@H]5CCC[C@@H]5NC(=O)OC)CC4)C3)cc2)C1 [compound 221] | 8.30 | < 50 nM | < 50 nM
C=CC(=O)N1CCCC[C@@H](S(=O)(=O)c2ccc(N3CC(C)(CN4CCC([C@@](CN5CCC5)(c5cccc(F)c5)[C@H]5CCC[C@@H]5NC(=O)OC)CC4)C3)cc2)C1 [compound 222] | 8.40 | < 50 nM | < 50 nM
C=CC(=O)N1CCCC[C@@H](S(=O)(=O)c2ccc(N3CC(CN4CCC([C@@](CN5CCC5)(c5cccc(F)c5)[C@H]5CCC[C@@H]5NC(=O)OC)CC4)C3)c(F)c2)C1 [compound 223] | 8.40 | < 50 nM | < 50 nM
C=CC(=O)N1CCCC[C@@H](S(=O)(=O)c2ccc(N3CC(F)(CN4CCC([C@@](CN5CCC5)(c5cccc(F)c5)[C@H]5CCC[C@@H]5NC(=O)OC)CC4)C3)c(F)c2)C1 [compound 224] | 8.40 | < 50 nM | < 50 nM
C=CC(=O)N1CCCC[C@@H](S(=O)(=O)c2ccc(N3CC(C)(CN4CCC([C@@](CN5CCC5)(c5cccc(F)c5)[C@H]5CCC[C@@H]5NC(=O)OC)CC4)C3)c(F)c2)C1 [compound 225] | 8.15 | < 100 nM | < 100 nM
C=CC(=O)N1CCCC[C@@H](S(=O)(=O)c2ccc(N3CC(CN4CCC([C@@](CN5CCC5)(c5cccc(F)c5)[C@H]5CCC[C@@H]5NC(=O)OC)CC4)(OC)C3)cc2)C1 [compound 226] | 8.52 | < 50 nM | < 50 nM
C=CC(=O)N1CCCC[C@@H](S(=O)(=O)c2ccc(N3CC(CN4CCC([C@@](CN5CCC5)(c5cccc(F)c5)[C@H]5CCC[C@@H]5NC(=O)OC)CC4)(OC)C3)c(F)c2)C1 [compound 227] | 8.15 | < 50 nM | < 50 nM
C=CC(=O)N1CCCC[C@@H](S(=O)(=O)c2ccc(N3CC(O)(CN4CCC([C@@](CN5CCC5)(c5cccc(F)c5)[C@H]5CCC[C@@H]5NC(=O)OC)CC4)C3)cc2)C1 [compound 228] | 8.15 | < 50 nM | < 500 nM
C=CC(=O)N1CCCC[C@@H](S(=O)(=O)c2ccc(N3CC(O)(CN4CCC([C@@](CN5CCC5)(c5cccc(F)c5)[C@H]5CCC[C@@H]5NC(=O)OC)CC4)C3)c(F)c2)C1 [compound 229] | 8.10 | < 100 nM | < 500 nM
C=CC(=O)N1CCOC[C@@H](S(=O)(=O)c2ccc(N3CC(CN4CCC([C@@](CN5CCC5)(c5cccc(F)c5)[C@H]5CCC[C@@H]5NC(=O)OC)CC4)(OC)C3)c(F)c2)C1 [compound 230] | 8.30 | < 50 nM | < 50 nM
CC#CC(=O)N1CCCC[C@@H](S(=O)(=O)c2ccc(N3CC(F)(CN4CCC([C@@](CN5CCC5)(c5cccc(F)c5)[C@H]5CCC[C@@H]5NC(=O)OC)CC4)C3)cc2)C1 [compound 231] | 8.40 | < 500 nM | < 500 nM
CC#CC(=O)N1CCCC[C@@H](S(=O)(=O)c2ccc(N3CC(CN4CCC([C@@](CN5CCC5)(c5cccc(F)c5)[C@H]5CCC[C@@H]5NC(=O)OC)CC4)(OC)C3)c(F)c2)C1 [compound 232] | 8.52 | < 100 nM | < 500 nM
C/C=C/S(=O)(=O)N1CCCC[C@@H](S(=O)(=O)c2ccc(N3CC(F)(CN4CCC([C@@](CN5CCC5)(c5cccc(F)c5)[C@H]5CCC[C@@H]5NC(=O)OC)CC4)C3)cc2)C1 [compound 233] | 8.52 | < 100 nM | < 500 nM
